Drawing on patent US20240174680A1, “CDK2 INHIBITORS AND METHODS OF USING THE SAME” (Cedilla Therapeutics, Inc., priority 2021, published 2024), this text covers IC50 for 43 compounds.

The target of the assay is CDK2/Cyclin E1 (Homo sapiens, UniProt P24941). Nature of the assay: CDK2/Cyclin E1 Caliper LabChip EZ Reader mobility shift assay. Format: biochemical. Further details: purchased Eurofins 14-475. Particulars: read-out: Caliper Assay (CDK2/CCNE1): IC50. Put shortly: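 Mobility-shift kinase assay: compound titrations preincubated 30 min with enzyme and ATP, reaction started with 5-FAM-QSPKKG-CONH2 peptide. Final 2.5 nM CDK2/Cyclin E1, 100 μM ATP, 1.5 μM peptide, HEPES pH 7.5; stopped with EDTA after 100 min. IC50 from four-parameter fit of normalized conversion ratio.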
For `C[C@@H](OCC1CCCCC1)[C@H](NC(=O)[C@@H]1CN(C(=O)c2cnn(Cc3ccccc3)c2)CC12CN(C(=O)[C@H]1CC1(C)C)C2)C(=O)N1CCC(CN)CC1` [I-219], the IC50 is at most 10 nM.

Consider `CNC(=O)[C@@H](NC(=O)[C@H]1CN(C(=O)c2cncs2)CC12CN(C(=O)[C@H]1CC1(C)C)C2)[C@@H](C)OCc1ccccc1` [I-24B], for which the IC50 is over 10000 nM.

For `CNC(=O)[C@@H](NC(=O)[C@H]1CN(C(=O)c2cnn(Cc3ccccc3)c2)CC12CN(C(=O)[C@H]1CC1(C)C)C2)[C@@H](C)OCC1CCC(C(F)(F)F)CC1` (stereo partly shown) [I-141B], the IC50 lay within 100 to 1000 nM.

Regarding `CCOC(=O)[C@H]1CCCN(C(=O)[C@@H](NC(=O)[C@@H]2CN(C(=O)c3cnn(Cc4ccccc4)c3)CC23CN(C(=O)[C@H]2CC2(C)C)C3)[C@@H](C)OCC2CCCCC2)C1` [I-482], the IC50 was at most 10 nM.

On to `C[C@@H](OCC1CCC(F)(F)CC1)[C@H](NC(=O)[C@@H]1CN(C(=O)c2cnn(Cc3ccc(F)cc3)c2)CC12CN(C(=O)[C@H]1CC1(C)C)C2)C(N)=O` [I-203], for which the IC50 was at most 10 nM.

As for `CC1(C)C[C@@H]1C(=O)N1CC2(CN(C(=O)c3cnn(Cc4ccccc4)c3)C[C@H]2C(=O)NCc2nnc[nH]2)C1` [I-191A], the IC50 was over 10000 nM.

On to `CC1(C)C[C@@H]1C(=O)N1CC2(CN(C(=O)c3cnn(Cc4ccccc4)c3)C[C@@H]2C(=O)N[C@H]2CCc3cc(Cl)ccc32)C1` [I-133B], for which the IC50 lay within 1000 to 10000 nM.

With `C[C@@H](OCc1ccccc1)[C@H](NC(=O)[C@@H]1CN(C(=O)c2cnn(Cc3ccccc3)c2)CC12CN(C(=O)[C@H]1CC1(C)C)C2)C(N)=O` [I-176A], the IC50 was in the range of 10 to 100 nM.

On to `C[C@@H](OCC1CCC(F)(F)CC1)[C@H](NC(=O)[C@@H]1CN(C(=O)c2cn[nH]c2)CC12CN(C(=O)[C@H]1CC1(C)C)C2)C(=O)N1CCOCC1` [I-301, (S)—N-((2S,3R)-3-((4,4-difluorocyclohexyl)methoxy)-1-morpholino-1-oxobutan-2-yl)-2-((S)-2,2-dimethylcyclopropane-1-carbonyl)-6-(1H-pyrazole-4-carbonyl)-2,6-diazaspiro[3.4]octane-8-carboxamide], for which the IC50 is at most 10 nM.

Take `CNC(=O)[C@@H](NC(=O)[C@H]1CN(C(=O)c2ccncc2)CC12CN(C(=O)[C@H]1CC1(C)C)C2)[C@@H](C)OCc1ccccc1` [I-46B]: the IC50 is over 10000 nM.

Turning to `C[C@@H](OCC12CCC(CC1)OC2)[C@H](NC(=O)[C@@H]1CN(C(=O)c2cncs2)CC12CN(C(=O)[C@H]1CC1(C)C)C2)C(=O)N1CCC(C(F)(F)F)CC1` [I-454, (S)—N-((2S,3R)-3-((2-oxabicyclo[2.2.2]octan-4-yl)methoxy)-1-oxo-1-(4-(trifluoromethyl)piperidin-1-yl)butan-2-yl)-2-((S)-2,2-dimethylcyclopropane-1-carbonyl)-6-(thiazole-5-carbonyl)-2,6-diazaspiro[3.4]octane-8-carboxamide], the IC50 was at most 10 nM.

With `CNC(=O)[C@@H](NC(=O)[C@H]1CN(C(=O)c2cnn(CC3CCOCC3)c2)CC12CN(C(=O)[C@H]1CC1(C)C)C2)[C@@H](C)OCc1ccccc1` [I-95B], the IC50 is over 10000 nM.

Turning to `CNC(=O)[C@@H](NC(=O)[C@@H]1CN(C(=O)c2cnn(Cc3ccccc3)c2)CC12CN(C(=O)[C@H]1CC1(C)C)C2)[C@@H](C)O` [I-88A, (S)-6-(1-benzyl-1H-pyrazole-4-carbonyl)-2-((S)-2,2-dimethylcyclopropane-1-carbonyl)-N-((2S,3R)-3-hydroxy-1-(methylamino)-1-oxobutan-2-yl)-2,6-diazaspiro[3.4]octane-8-carboxamide], the IC50 was over 10000 nM.

As to `CNC(=O)[C@H](CSCc1ccccc1)NC(=O)[C@@H]1CN(C(=O)c2cnn(Cc3ccccc3)c2)CC12CN(C(=O)[C@H]1CC1(C)C)C2` [I-225], the IC50 was 100 to 1000 nM.

On to `COC[C@H]1CCCN(C(=O)[C@@H](NC(=O)[C@@H]2CN(C(=O)c3cncs3)CC23CN(C(=O)[C@H]2CC2(C)C)C3)[C@@H](C)O[C@@H](C)C2CCCCC2)C1` [I-467], for which the IC50 is at most 10 nM.

As to `CNC(=O)[C@@H](NC(=O)[C@@H]1CN(C(=O)c2cnn(Cc3ccccc3)c2)CC12CN(C(=O)C(C)(C)C)C2)[C@@H](C)OCC1CCCCC1` [I-174A], the IC50 lay in the range of 10 to 100 nM.

Regarding `COC[C@H]1CCCN(C(=O)[C@@H](NC(=O)[C@@H]2CN(C(=O)c3cncs3)CC23CN(C(=O)[C@H]2CC2(C)C)C3)[C@@H](C)OC[C@H]2CC[C@H](OC(F)(F)F)CC2)C1` [I-435], the IC50 is at most 10 nM.

Regarding `CNC(=O)[C@@H](NC(=O)[C@@H]1CN(C(=O)c2cnn(Cc3ccccc3)c2)CC12CN(C(=O)[C@H]1CC1(C)C)C2)[C@@H](C)OC[C@H]1CC[C@H](OC)CC1` [I-403], the IC50 fell in the range of 10 to 100 nM.

In the case of `CNC(=O)[C@@H](NC(=O)[C@@H]1CN(C(=O)c2cnn(Cc3ccccc3)c2)CC12CN(C(=O)[C@H]1CC1(C)C)C2)C(C)(C)OCc1ccccc1` [I-393], the IC50 is 10 to 100 nM.

Regarding `C[C@H](OC1CCN(C(=O)[C@@H]2CN(C(=O)c3cnn(Cc4ccccc4)c3)CC23CN(C(=O)[C@H]2CC2(C)C)C3)CC1)c1ccccc1` [I-275], the IC50 was 100 to 1000 nM.

For the compound `C[C@@H](OCC1CCOCC1)[C@H](NC(=O)[C@@H]1CN(C(=O)c2cncs2)CC12CN(C(=O)[C@H]1CC1(C)C)C2)C(=O)N1CCC(n2ccnc2)CC1` [I-440], the IC50 lay in the range of 10 to 100 nM.

`CNC(=O)[C@@H](NC(=O)[C@@H]1CN(C(=O)c2cnn(Cc3ccccc3)c2)CC12CN(C(=O)NC1CC1)C2)[C@@H](C)OCC1CCCCC1` [I-268, (S)-6-(1-benzyl-1H-pyrazole-4-carbonyl)-N8-((2S,3R)-3-(cyclohexylmethoxy)-1-(methylamino)-1-oxobutan-2-yl)-N2-cyclopropyl-2,6-diazaspiro[3.4]octane-2,8-dicarboxamide]: the IC50 was over 10000 nM.

In the case of `CNC(=O)[C@@H](NC(=O)[C@H]1CN(C(=O)c2cnn(Cc3ccccc3)c2)CC12CN(C(=O)[C@H]1CC1(C)C)C2)[C@@H](C)OCC1CCCCCC1` [I-166B], the IC50 fell in the range of 100 to 1000 nM.

As to `CNC(=O)[C@@H](NC(=O)[C@H]1CN(C(=O)c2cnn(Cc3ccccc3)c2)CC12CN(C(=O)CC(C)C)C2)[C@@H](C)OCc1ccccc1` [I-69B], the IC50 was over 10000 nM.

`C[C@@H](OCC1(C(F)(F)F)CC1)[C@H](NC(=O)[C@@H]1CN(C(=O)c2cncs2)CC12CN(C(=O)[C@H]1CC1(C)C)C2)C(=O)N1CCC(F)(F)CC1` [I-287]: the IC50 lay within 100 to 1000 nM.

On to `CNC(=O)C(NC(=O)[C@@H]1CN(C(=O)c2cncs2)CC12CN(C(=O)[C@H]1CC1(C)C)C2)c1cccc(N2CCCCC2)n1` (stereo partly shown) [I-432], for which the IC50 was 100 to 1000 nM.

On to `[2H]C([2H])([2H])NC(=O)C(NC(=O)[C@@H]1CN(C(=O)c2cncs2)CC12CN(C(=O)[C@H]1CC1(C)C)C2)c1cccc(N2CCOCC2)n1` (stereo partly shown) [I-18], for which the IC50 lay within 1000 to 10000 nM.

On to `C[C@@H](OCC1CCC(F)(F)CC1)[C@@H](COC1CCC(F)(F)CC1)NC(=O)[C@@H]1CN(C(=O)c2cncs2)CC12CN(C(=O)[C@H]1CC1(C)C)C2` [I-315], for which the IC50 is at most 10 nM.

As for `C[C@@H](OCC1CCCCC1)[C@H](NC(=O)[C@@H]1CN(C(=O)c2cnn(Cc3ccccc3)c2)CC12CN(C(=O)[C@H]1CC1(C)C)C2)C(=O)N1CCC[C@H]1CN` [I-220], the IC50 was 10 to 100 nM.

For the compound `CNC(=O)[C@@H](NC(=O)[C@@H]1CN(C(=O)c2cnn(Cc3ccccc3)c2)CC12CN(C(=O)[C@H]1CC1(C)C)C2)[C@@H](C)OCC1CCCCCC1` [I-166A], the IC50 is at most 10 nM.

In the case of `CNC(=O)[C@@H](NC(=O)[C@@H]1CN(C(=O)c2cnn(Cc3ccccc3)c2)CC12CN(C(=O)C1(CC3CC3)CC1)C2)[C@@H](C)OCc1ccccc1` [I-116A], the IC50 is over 10000 nM.

Turning to `CC1(C)C[C@@H]1C(=O)N1CC2(CN(C(=O)c3cnn(Cc4ccccc4)c3)C[C@H]2C(=O)N2CCO[C@@H](Cc3ccccc3)C2)C1` [I-210], the IC50 is over 10000 nM.

As for `C[C@@H](OCC1CCCCC1)[C@H](NC(=O)[C@@H]1CN(C(=O)c2cnn(Cc3ccccc3)c2)CC12CN(C(=O)[C@H]1CC1(C)C)C2)C(=O)N1CCC[C@H](C(=O)O)C1` [I-483], the IC50 is at most 10 nM.

As to `C[C@@H](OCC1CCCCC1)[C@H](NC(=O)[C@@H]1CN(C(=O)c2cncs2)CC12CN(C(=O)[C@H]1CC1(C)C)C2)C(=O)N1CCNCC1` [I-328], the IC50 was at most 10 nM.

On to `CC1(C)C[C@@H]1C(=O)N1CC2(CN(C(=O)c3cnn(Cc4ccccc4)c3)C[C@H]2C(=O)NC2CCNC(=O)C2)C1` (stereo partly shown) [I-223], for which the IC50 was over 10000 nM.

For `C[C@@H]1C[C@H](C)CN(C(=O)[C@@H](NC(=O)C2CN(C(=O)c3cn[nH]c3)CC23CN(C(=O)[C@H]2CC2(C)C)C3)[C@@H](C)OCc2ccccc2)C1` (stereo partly shown) [I-124], the IC50 lay in the range of 100 to 1000 nM.

On to `CCCC(=O)N1CC2(C1)CN(C(=O)c1cnn(Cc3ccccc3)c1)C[C@H]2C(=O)N[C@H](C(=O)NC)[C@@H](C)OCc1ccccc1` [I-60A], for which the IC50 was 1000 to 10000 nM.

As for `CNC(=O)[C@@H](NC(=O)C1(F)CN(C(=O)c2cnn(Cc3ccccc3)c2)CC12CN(C(=O)[C@H]1CC1(C)C)C2)[C@@H](C)OCc1ccccc1` (stereo partly shown) [I-500], the IC50 is 100 to 1000 nM.

As for `CNC(=O)[C@@H](NC(=O)C1CN(C(=O)c2cnn(Cc3cccnc3)c2)CC12CN(C(=O)C1CC1(C)C)C2)[C@@H](C)OCc1ccccc1` (stereo partly shown) [I-15], the IC50 was 100 to 1000 nM.

For the compound `CCOC(=O)[C@@H]1CCCN(C(=O)[C@@H](NC(=O)[C@@H]2CN(C(=O)c3cnn(Cc4ccccc4)c3)CC23CN(C(=O)[C@H]2CC2(C)C)C3)[C@@H](C)OCC2CCCCC2)C1` [I-484], the IC50 was at most 10 nM.

For `CNC(=O)[C@@H](NC(=O)[C@H]1CN(C(=O)c2cnn(CC(F)(F)F)c2)CC12CN(C(=O)CC1CC1)C2)[C@@H](C)OCc1ccccc1` [I-43B], the IC50 was over 10000 nM.

In the case of `C[C@@H](OCC1CCCCC1)[C@H](NC(=O)C1CN(C(=O)C2CCC(=O)N(C)C2)CC12CN(C(=O)[C@H]1CC1(C)C)C2)C(=O)N1CCCCC1` (stereo partly shown) [I-242], the IC50 was in the range of 1000 to 10000 nM.

As to `C[C@@H](OCC1CCCCC1)[C@@H](CO)NC(=O)[C@@H]1CN(C(=O)c2cnn(Cc3ccccc3)c2)CC12CN(C(=O)[C@H]1CC1(C)C)C2` [I-135A], the IC50 fell in the range of 10 to 100 nM.
